Test results reported in PubChem BioAssay AID328 (DTP/NCI, 2004).
Values joined by “and” are separate entries in the source; they are usually repeats but may differ in a detail not shown here. Identical values can stand only once. Inconclusive results and toxic doses are left out.

Test system: BDF1 mice, P388 leukemia ip, median survival T/C
Experiment: NCI In Vivo Anticancer Drug Screen. Data for tumor model P388 Leukemia (intraperitoneal) in B6D2F1 (BDF1) mice
Conditions: endpoint: median survival time, higher = longer survival
In short: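 Each value expresses how treatment altered survival: treated-mouse outcome over vehicle-mouse outcome, both groups bearing the transplanted tumour.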

[1] = dose: 25.0 mg/kg/injection, schedule: Q01DX009 (ip), vehicle: saline with Tween-80
[2] = dose: 100.0 mg/kg/injection, schedule: Q04DX003 (ip), vehicle: saline with Tween-80
[3] = dose: 200.0 mg/kg/injection, schedule: Q04DX003 (ip), vehicle: saline with Tween-80
[4] = dose: 50.0 mg/kg/injection, schedule: Q01DX009 (ip), vehicle: saline with Tween-80
[5] = dose: 100.0 mg/kg/injection, schedule: Q01DX009 (ip), vehicle: saline with Tween-80

SMILES: O=c1[nH]cnc2c1nnn2C1OC(CO)C(O)C1O (centres undefined)
- T/C (dose: 50.0 mg/kg/injection, schedule: Q01DX006 (ip), vehicle: saline): 95 % of control
- T/C (dose: 130.0 mg/kg/injection, schedule: Q01DX006 (ip), vehicle: saline): 117 % of control

SMILES: Cc1cc(-c2ccc(Cl)cc2)[n+](C)n1C
- T/C (dose: 12.5 mg/kg/injection, schedule: Q01DX009 (ip), vehicle: saline with Tween-80): 100 % of control
- T/C [1]: 111 % of control

SMILES: CN1CCC(CN2c3ccccc3Sc3ccccc32)CC1
- T/C (dose: 1.56 mg/kg/injection, schedule: Q01DX009 (ip), vehicle: Klucel (hydroxypropylcellulose) (HPC)): 105 % of control
- T/C (dose: 3.12 mg/kg/injection, schedule: Q01DX009 (ip), vehicle: Klucel (hydroxypropylcellulose) (HPC)): 86 % of control and 105 % of control
- T/C (dose: 6.25 mg/kg/injection, schedule: Q01DX009 (ip), vehicle: Klucel (hydroxypropylcellulose) (HPC)): 95 % of control
- T/C (dose: 8.75 mg/kg/injection, schedule: Q04DX003 (ip), vehicle: Klucel (hydroxypropylcellulose) (HPC)): 95 % of control
- T/C (dose: 17.5 mg/kg/injection, schedule: Q04DX003 (ip), vehicle: Klucel (hydroxypropylcellulose) (HPC)): 95 % of control
- T/C (dose: 35.0 mg/kg/injection, schedule: Q04DX003 (ip), vehicle: Klucel (hydroxypropylcellulose) (HPC)): 109 % of control
- T/C (dose: 50.0 mg/kg/injection, schedule: Q04DX003 (ip), vehicle: Klucel (hydroxypropylcellulose) (HPC)): 110 % of control
- T/C (dose: 80.0 mg/kg/injection, schedule: Q04DX003 (ip), vehicle: Klucel (hydroxypropylcellulose) (HPC)): 120 % of control
- T/C [2]: 118 % of control
- T/C [3]: 86 % of control

SMILES: CCCNC(=O)Oc1c(C(C)C)ccc(C)c1Cl
- T/C [2]: 100 % of control
- T/C [3]: 90 % of control
- T/C (dose: 400.0 mg/kg/injection, schedule: Q04DX003 (ip), vehicle: saline with Tween-80): 104 % of control

SMILES: COc1cc(/C=C/C(=O)O)ccc1OC(C)=O
- T/C (dose: 100.0 mg/kg/injection, schedule: Q01DX001 (ip), vehicle: saline): 100 % of control
- T/C (dose: 200.0 mg/kg/injection, schedule: Q01DX001 (ip), vehicle: saline): 100 % of control
- T/C (dose: 400.0 mg/kg/injection, schedule: Q01DX001 (ip), vehicle: saline): 100 % of control

SMILES: O=C(NC(=O)c1c(F)cccc1F)Nc1ccc(Cl)c2ccccc12
- T/C [1]: 91 % of control
- T/C [4]: 100 % of control
- T/C [5]: 90 % of control

SMILES: O=S(=O)(O)O.[Co+3].[Co+3].[NH2-].[NH2-].[NH2-].[NH2-].[NH2-].[NH2-].[NH2-].[NH2-].[NH2-].[NH2-].[O-][O-]
- T/C (dose: 1.56 mg/kg/injection, schedule: Q01DX009 (ip), vehicle: saline): 97 % of control
- T/C (dose: 3.13 mg/kg/injection, schedule: Q01DX009 (ip), vehicle: saline): 98 % of control
- T/C (dose: 6.25 mg/kg/injection, schedule: Q01DX009 (ip), vehicle: saline): 97 % of control

SMILES: CO[C@H]1C[C@H](O[C@H]2CC[C@@]3(C)[C@H](CC[C@@H]4[C@@H]3CC[C@]3(C)[C@@H](C5=CC(=O)OC5)CC[C@]43O)C2)O[C@H](C)[C@H]1O
- T/C (dose: 4.3 mg/kg/injection, schedule: Q01DX009 (ip), vehicle: saline with Tween-80): 99 % of control
- T/C (dose: 6.4 mg/kg/injection, schedule: Q01DX009 (ip), vehicle: saline with Tween-80): 107 % of control
- T/C (dose: 9.6 mg/kg/injection, schedule: Q01DX009 (ip), vehicle: saline with Tween-80): 107 % of control

SMILES: Cc1ccc(C(=S)NC(=O)Nc2ccccc2)cc1
- T/C (dose: 50.0 mg/kg/injection, schedule: Q01DX001 (ip), vehicle: saline with Tween-80): 93 % of control
- T/C (dose: 100.0 mg/kg/injection, schedule: Q01DX001 (ip), vehicle: saline with Tween-80): 92 % of control
- T/C (dose: 200.0 mg/kg/injection, schedule: Q01DX001 (ip), vehicle: saline with Tween-80): 90 % of control

SMILES: CC1C=CC(C)C(C(=O)c2ccccc2)C1C(=O)c1ccccc1 (centres undefined)
- T/C (dose: 100.0 mg/kg/injection, schedule: Q04DX003 (ip), vehicle: Klucel (hydroxypropylcellulose) (HPC)): 104 % of control
- T/C (dose: 200.0 mg/kg/injection, schedule: Q04DX003 (ip), vehicle: Klucel (hydroxypropylcellulose) (HPC)): 100 % of control
- T/C (dose: 400.0 mg/kg/injection, schedule: Q04DX003 (ip), vehicle: Klucel (hydroxypropylcellulose) (HPC)): 100 % of control

SMILES: CN(C)P(=O)(Oc1ccccc1)N(C)C
- T/C [1]: 94 % of control
- T/C [4]: 120 % of control
- T/C [5]: 102 % of control and 103 % of control
- T/C (dose: 200.0 mg/kg/injection, schedule: Q01DX009 (ip), vehicle: saline with Tween-80): 100 % of control

SMILES: S=c1nc[nH]c2c1ncn2CN1CCCCC1
- T/C (dose: 66.0 mg/kg/injection, schedule: Q01DX009 (ip), vehicle: saline with Tween-80): 122 % of control
- T/C (dose: 150.0 mg/kg/injection, schedule: Q01DX009 (ip), vehicle: saline with Tween-80): 154 % of control

SMILES: Nc1cc(Cl)c(O)c(Cl)c1
- T/C (dose: 50.0 mg/kg/injection, schedule: Q04DX003 (ip), vehicle: saline): 100 % of control
- T/C (dose: 100.0 mg/kg/injection, schedule: Q04DX003 (ip), vehicle: saline): 100 % of control
- T/C (dose: 200.0 mg/kg/injection, schedule: Q04DX003 (ip), vehicle: saline): 95 % of control
